Measured values taken from the CheMixHub viscosity set.
± gives the uncertainty stated by the source.

Assay: xn = mol fraction of the nth substance listed

CS(C)=O + c1ccccc1
viscosity [mPa·s], 101.3 kPa
Conditions	x1 = 0.1043	x1 = 0.2048	x1 = 0.3059	x1 = 0.4069	x1 = 0.5105	x1 = 0.6085	x1 = 0.7063	x1 = 0.8049	x1 = 0.9029
298.15 K	0.669 ± 0.018	0.743 ± 0.02	0.829 ± 0.021	0.923 ± 0.023	1.036 ± 0.026	1.169 ± 0.029	1.317 ± 0.032	1.492 ± 0.036	1.712 ± 0.041
303.15 K	0.622 ± 0.017	0.69 ± 0.018	0.766 ± 0.02	0.853 ± 0.022	0.955 ± 0.024	1.071 ± 0.027	1.207 ± 0.03	1.367 ± 0.033	1.562 ± 0.038
308.15 K	0.581 ± 0.016	0.643 ± 0.017	0.714 ± 0.019	0.796 ± 0.021	0.884 ± 0.023	0.99 ± 0.025	1.111 ± 0.028	1.258 ± 0.031	1.426 ± 0.035

OC1CCCCC1 + C1CCCCC1
101 kPa
Conditions	viscosity [mPa·s]
303.15 K, x2 = 0.05	19 ± 1
303.15 K, x2 = 0.09	15.63 ± 0.44
303.15 K, x2 = 0.14	12.83 ± 0.36
308 K, x2 = 0.1168	10.68 ± 0.074
308 K, x2 = 0.2322	7.143 ± 0.051
308 K, x2 = 0.3358	4.937 ± 0.037
308 K, x2 = 0.4443	3.51 ± 0.026
308 K, x2 = 0.5452	2.453 ± 0.019
308 K, x2 = 0.6483	1.716 ± 0.013
308 K, x2 = 0.7411	1.326 ± 0.01
308 K, x2 = 0.8311	1.049 ± 0.0083
308 K, x2 = 0.918	0.8891 ± 0.0071
323.15 K, x2 = 0.05	7.54 ± 0.22
323.15 K, x2 = 0.09	6.39 ± 0.18
323.15 K, x2 = 0.14	5.53 ± 0.16

C1CCCCCCC1 + C1CCCCC1
viscosity [mPa·s], 101 kPa
Conditions	303.15 K	308.15 K	313.15 K
x2 = 0.0546	–	1.706 ± 0.027	1.541 ± 0.024
x2 = 0.0923	1.877 ± 0.011	–	–
x2 = 0.1695	–	1.514 ± 0.024	1.381 ± 0.022
x2 = 0.2019	1.715 ± 0.01	–	–
x2 = 0.2513	–	1.41 ± 0.022	1.277 ± 0.02
x2 = 0.2992	1.585 ± 0.0094	–	–
x2 = 0.3712	–	1.274 ± 0.02	1.165 ± 0.019
x2 = 0.4839	–	1.158 ± 0.019	1.054 ± 0.017
x2 = 0.4989	1.344 ± 0.0081	–	–
x2 = 0.5516	–	1.097 ± 0.018	1.004 ± 0.017
x2 = 0.5811	1.254 ± 0.0076	–	–
x2 = 0.6466	1.183 ± 0.0072	–	–
x2 = 0.6567	–	1.006 ± 0.017	0.9146 ± 0.015
x2 = 0.7233	1.102 ± 0.0068	–	–
x2 = 0.7817	–	0.9053 ± 0.015	0.8267 ± 0.014
x2 = 0.8015	1.021 ± 0.0063	–	–
x2 = 0.8998	0.924 ± 0.0058	–	–
x2 = 0.9314	–	0.8049 ± 0.014	0.7359 ± 0.013

C1CCCCCCC1 + Cc1ccccc1
303 K, 101 kPa
Conditions	viscosity [mPa·s]
x2 = 0.0411	1.726 ± 0.013
x2 = 0.1605	1.259 ± 0.0098
x2 = 0.3113	1.024 ± 0.0081
x2 = 0.4874	0.8342 ± 0.0067
x2 = 0.6192	0.7126 ± 0.0058
x2 = 0.7463	0.627 ± 0.0052
x2 = 0.8614	0.5716 ± 0.0048
x2 = 0.9174	0.5484 ± 0.0046
x2 = 0.973	0.5311 ± 0.0045

C[N+](C)(C)CCC[n+]1ccccc1.N#C[N-]C#N.N#C[N-]C#N + CCO
viscosity [mPa·s], 100 kPa
Conditions	293.15 K	313.15 K	323.15 K
x1 = 0.7003	–	–	75.75 ± 7.6
x1 = 0.7998	614.5 ± 78	161.5 ± 17	99.22 ± 10

CCCCC + CCCCCCCCCC
viscosity [mPa·s]
Conditions	x1 = 0.1031	x1 = 0.2082	x1 = 0.3062	x1 = 0.408	x1 = 0.5061	x1 = 0.6029	x1 = 0.7058	x1 = 0.804	x1 = 0.9008
297.95 K, 101 kPa	0.7711 ± 0.032	0.6992 ± 0.029	0.6136 ± 0.025	0.5536 ± 0.023	0.4708 ± 0.019	0.4339 ± 0.018	0.3667 ± 0.015	0.32 ± 0.013	0.2645 ± 0.011
298.15 K, 101.33 kPa	0.7775 ± 0.02	0.6969 ± 0.018	0.6169 ± 0.017	0.5449 ± 0.015	0.4818 ± 0.014	0.4285 ± 0.013	0.3626 ± 0.011	0.3143 ± 0.01	0.2671 ± 0.009
313.05 K, 101 kPa	0.6585 ± 0.027	0.5949 ± 0.025	0.5183 ± 0.021	0.4627 ± 0.019	0.4237 ± 0.017	0.3644 ± 0.015	0.3189 ± 0.013	0.2801 ± 0.012	0.2396 ± 0.01
